Legend:
CDK2/Cyclin A = CDK2/Cyclin A (Homo sapiens, UniProt P24941); assay: Inhibition of CDK2/Cyclin A Retinoblastoma Kinase Activity; type: biochemical; conditions: 0.03 μM compound, Table 4
Summary of the method: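 Percent inhibition is calculated against DMSO-only wells after subtracting no-enzyme background. The enzyme is human CDK2 complexed with proteolyzed cyclin A, used at 10 nM or 19 nM on an Rb fragment with 25 μM [32/33P]ATP, at pH 7.4 and 30° C.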

[1] = target: human CDK4 and genetically truncated (1-264) cyclin D3 (Homo sapiens, UniProt P11802); assay: Inhibition of CDK4/Cyclin D Retinoblastoma Kinase Activity; type: biochemical; conditions: 0.03 μM compound, Table 4
Summary of the method: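 Apparent Ki values derive from fitting activity at varied inhibitor concentrations to a competitive (or competitive tight-binding) model. Kinase reactions used 5 nM CDK4/cyclin D3(1-264), Rb fragment substrate and 25 μM ATP. Incubation ran 20 min at 30 °C, extended to 60 min under linear conditions for tight binders.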

HCT-116 cell line = assay: Inhibition of cell growth, tetrazolium salt (MTT) assay; type: cell-based; conditions: HCT-116, Table 4; for HCT-116 % Inhibition at 0.1 μM: 0.1 μM compound; for HCT-116 % Inhibition at 0.25 μM: 0.25 μM compound
Summary of the method: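 Cells in McCoy's 5A medium were left 4 h, then given graded compound concentrations in 0.5% (v/v) DMSO and incubated three to five days at 37° C (5% CO2). MTT was added to 0.2 mg/mL for 4 h more; DMSO-solubilized formazan was read at 540 nm against 0.5% DMSO-only controls.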

Chain of human CDK4 and genetically truncated (1-264) cyclin D3 (P11802 whole entry, the tested form may be a part): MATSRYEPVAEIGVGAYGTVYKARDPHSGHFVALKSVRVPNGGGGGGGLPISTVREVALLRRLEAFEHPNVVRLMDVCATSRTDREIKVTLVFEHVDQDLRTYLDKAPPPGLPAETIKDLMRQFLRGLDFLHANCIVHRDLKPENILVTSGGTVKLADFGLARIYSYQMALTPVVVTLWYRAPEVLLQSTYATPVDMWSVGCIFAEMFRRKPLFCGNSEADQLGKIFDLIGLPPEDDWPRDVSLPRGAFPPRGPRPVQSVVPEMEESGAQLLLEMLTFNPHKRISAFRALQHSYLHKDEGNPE
Chain of human CDK4 and genetically truncated (1-264) cyclin D3 (P30281 1-264 partner): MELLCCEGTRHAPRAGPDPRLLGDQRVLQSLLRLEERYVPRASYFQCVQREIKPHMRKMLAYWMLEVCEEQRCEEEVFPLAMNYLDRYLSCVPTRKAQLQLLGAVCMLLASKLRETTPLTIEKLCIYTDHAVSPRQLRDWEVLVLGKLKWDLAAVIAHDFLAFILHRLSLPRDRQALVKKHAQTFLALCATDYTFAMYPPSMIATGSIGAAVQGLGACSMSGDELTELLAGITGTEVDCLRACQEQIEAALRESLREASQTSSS

CDK2 % Inhibition at 0.03 μM (CDK2/Cyclin A) [%]	CDK4 % Inhibition at 0.03 μM [1] [%]	CDK2 % Inhibition at 0.03 μM (CDK2/Cyclin A; 0.03 µM) [%]	CDK4 % Inhibition at 0.03 μM ([1]; 0.03 µM) [%]	Compound	HCT-116 % Inhibition at 0.1 μM (HCT-116 cell line) [%]	HCT-116 % Inhibition at 0.25 μM (HCT-116 cell line) [%]	HCT-116 % Inhibition at 0.1 μM (HCT-116 cell line; 0.1 µM) [%]	HCT-116 % Inhibition at 0.25 μM (HCT-116 cell line; 0.25 µM) [%]
−13	17	–	–	CCOC(=O)C(=O)N1CCC(Nc2nc(N)c(C(=O)c3c(F)cccc3F)s2)CC1 [Example Q39]	0	25	–	–
−5	7	–	–	CC(=O)OC(C(=O)N1CCC(Nc2nc(N)c(C(=O)c3c(F)cccc3F)s2)CC1)c1ccccc1 (stereo not drawn) [Example Q40]	0	20	–	–
24	36	–	–	Nc1nc(NC2CCN(C(=O)COc3ccccc3)CC2)sc1C(=O)c1c(F)cccc1F [Example Q41]	3	15	–	–
−4	20	–	–	COCC(=O)N1CCC(Nc2nc(N)c(C(=O)c3c(F)cccc3F)s2)CC1 [Example Q42]	3	30	–	–
16	30	–	–	Nc1nc(NC2CCN(C(=O)Cc3ccccc3)CC2)sc1C(=O)c1c(F)cccc1F [Example Q43]	0	24	–	–
−19	17	–	–	CC(C)=CC(=O)N1CCC(Nc2nc(N)c(C(=O)c3c(F)cccc3F)s2)CC1 [Example Q44]	0	30	–	–
21	47	–	–	Nc1nc(NC2CCN(C(=O)/C=C/c3ccccc3)CC2)sc1C(=O)c1c(F)cccc1F [Example Q45]	0	31	–	–
−9	25	–	–	C/C=C/C(=O)N1CCC(Nc2nc(N)c(C(=O)c3c(F)cccc3F)s2)CC1 [Example Q46]	0	27	–	–
−13	9	–	–	CCOC(=O)CC(=O)N1CCC(Nc2nc(N)c(C(=O)c3c(F)cccc3F)s2)CC1 [Example Q47]	0	25	–	–
5	48	–	–	Nc1nc(NC2CCN(C(=O)CCc3ccccc3)CC2)sc1C(=O)c1c(F)cccc1F [Example Q48]	0	19	–	–
16	24	–	–	COC(=O)CCC(=O)N1CCC(Nc2nc(N)c(C(=O)c3c(F)cccc3F)s2)CC1 [Example Q49]	0	28	–	–
24	42	–	–	CCOC(=O)CCC(=O)N1CCC(Nc2nc(N)c(C(=O)c3c(F)cccc3F)s2)CC1 [Example Q50]	7	39	–	–
4	22	–	–	Nc1nc(NC2CCN(C(=O)C(Cl)(c3ccccc3)c3ccccc3)CC2)sc1C(=O)c1c(F)cccc1F [Example Q51]	0	34	–	–
24	53	–	–	Nc1nc(NC2CCN(C(=O)c3ccccc3I)CC2)sc1C(=O)c1c(F)cccc1F [Example Q52]	0	24	–	–
60	83	–	–	Nc1nc(NC2CCN(C(=O)c3ccc(I)cc3)CC2)sc1C(=O)c1c(F)cccc1F [Example Q53]	0	22	–	–
−2	18	–	–	Nc1nc(NC2CCN(C(=O)C3CC3)CC2)sc1C(=O)c1c(F)cccc1F [Example Q54]	0	35	–	–
12	14	–	–	Nc1nc(NC2CCN(C(=O)C3CCC3)CC2)sc1C(=O)c1c(F)cccc1F [Example Q56]	0	35	–	–
32	40	–	–	Nc1nc(NC2CCN(C(=O)C3CCCC3)CC2)sc1C(=O)c1c(F)cccc1F [Example Q57]	0	32	–	–

CDK2 % Inhibition at 0.03 μM (CDK2/Cyclin A) [%]	CDK4 % Inhibition at 0.03 μM [1] [%]	CDK2 % Inhibition at 0.03 μM (CDK2/Cyclin A; 0.03 µM) [%]	CDK4 % Inhibition at 0.03 μM ([1]; 0.03 µM) [%]	Compound	HCT-116 % Inhibition at 0.1 μM (HCT-116 cell line) [%]	HCT-116 % Inhibition at 0.25 μM (HCT-116 cell line) [%]	HCT-116 % Inhibition at 0.1 μM (HCT-116 cell line; 0.1 µM) [%]	HCT-116 % Inhibition at 0.25 μM (HCT-116 cell line; 0.25 µM) [%]
29	53	–	–	Nc1nc(NC2CCN(C(=O)CCC3CCCC3)CC2)sc1C(=O)c1c(F)cccc1F [Example Q58]	0	25	–	–
10	14	–	–	Nc1nc(NC2CCN(C(=O)C3CCCCC3)CC2)sc1C(=O)c1c(F)cccc1F [Example Q59]	0	30	–	–
37	67	–	–	N#Cc1ccc(C(=O)N2CCC(Nc3nc(N)c(C(=O)c4c(F)cccc4F)s3)CC2)cc1 [Example Q60]	0	37	–	–
–	–	41	49	Nc1nc(NC2CCN(C(=O)c3cccs3)CC2)sc1C(=O)c1c(F)cccc1F [Example Q61]	–	–	0	34
33	49	–	–	Nc1nc(NC2CCN(C(=O)c3cccc4ccccc34)CC2)sc1C(=O)c1c(F)cccc1F [Example Q62]	12	53	–	–
39	57	–	–	Nc1nc(NC2CCN(C(=O)c3ccc4ccccc4c3)CC2)sc1C(=O)c1c(F)cccc1F [Example Q63]	5	25	–	–
–	–	45	48	Nc1nc(NC2CCN(C(=O)c3cccs3)CC2)sc1C(=O)c1c(F)cccc1F [Example Q64]	–	–	7	25
39	31	–	–	Nc1nc(NC2CCN(C(=O)Cc3cccs3)CC2)sc1C(=O)c1c(F)cccc1F [Example Q65]	3	27	–	–
7	29	–	–	Nc1nc(NC2CCN(C(=O)c3ccc4c(c3)C(=O)OC4=O)CC2)sc1C(=O)c1c(F)cccc1F [Example Q66]	7	34	–	–
13	50	–	–	Nc1nc(NC2CCN(C(=O)c3cnc4ccccc4n3)CC2)sc1C(=O)c1c(F)cccc1F [Example Q67]	9	30	–	–
41	51	–	–	Nc1nc(NC2CCN(C(=O)c3ccccc3[N+](=O)[O-])CC2)sc1C(=O)c1c(F)cccc1F [Example Q68]	4	33	–	–
54	80	–	–	Nc1nc(NC2CCN(C(=O)c3cccc([N+](=O)[O-])c3)CC2)sc1C(=O)c1c(F)cccc1F [Example Q69]	1	24	–	–
19	38	–	–	Nc1nc(NC2CCN(C(=O)c3cc([N+](=O)[O-])cc([N+](=O)[O-])c3)CC2)sc1C(=O)c1c(F)cccc1F [Example Q70]	5	26	–	–
28	61	–	–	Nc1nc(NC2CCN(C(=O)c3ccc([N+](=O)[O-])cc3)CC2)sc1C(=O)c1c(F)cccc1F [Example Q71]	2	30	–	–
18	43	–	–	COc1ccc(CC(=O)N2CCC(Nc3nc(N)c(C(=O)c4c(F)cccc4F)s3)CC2)cc1OC [Example Q72]	8	29	–	–
52	78	–	–	Nc1nc(NC2CCN(C(=O)c3ccc(F)c(F)c3)CC2)sc1C(=O)c1c(F)cccc1F [Example Q73]	3	33	–	–
2	19	–	–	Nc1nc(NC2CCN(C(=O)c3cccc4c3-c3ccccc3C4=O)CC2)sc1C(=O)c1c(F)cccc1F [Example Q74]	3	35	–	–
9	20	–	–	Nc1nc(NC2CCN(C(=O)COCc3ccccc3)CC2)sc1C(=O)c1c(F)cccc1F [Example Q75]	5	39	–	–
